In article PMC4774911, “Biochemical Screening of Five Protein Kinases from Plasmodium falciparum against 14,000 Cell-Active Compounds” (PLoS ONE, 2016):
Several values for one entry are separate records, joined by “and”; a condition that tells them apart may be missing. Equal values may be shown once.

Tests used:
Assay in all cases: biochemical
BTK = BTK (Homo sapiens, UniProt Q06187)
CDK7 = CDK7 (Homo sapiens, UniProt P50613)
CSK = CSK (Homo sapiens, UniProt P41240)
FYN = FYN (Homo sapiens, UniProt P06241)
LIMK1 = LIMK1 (Homo sapiens, UniProt P53667)
MAP2K4 = biological target: T1, MAP2K4 (Homo sapiens, UniProt P45985)
T1 sequence (P45985 1-399): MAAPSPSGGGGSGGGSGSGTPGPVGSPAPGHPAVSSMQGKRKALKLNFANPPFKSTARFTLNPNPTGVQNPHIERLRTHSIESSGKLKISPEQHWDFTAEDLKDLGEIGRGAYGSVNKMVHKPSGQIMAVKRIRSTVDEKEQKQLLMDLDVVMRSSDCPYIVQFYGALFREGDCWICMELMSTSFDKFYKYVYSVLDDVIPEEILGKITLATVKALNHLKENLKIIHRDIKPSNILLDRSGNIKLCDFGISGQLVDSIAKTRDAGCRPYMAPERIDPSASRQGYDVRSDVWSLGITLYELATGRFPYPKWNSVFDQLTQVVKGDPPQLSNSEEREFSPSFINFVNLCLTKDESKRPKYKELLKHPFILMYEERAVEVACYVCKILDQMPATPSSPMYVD

MAPK8 = MAPK8 (Homo sapiens, UniProt P45983)
Chain of MAPK8 (P45983 whole entry): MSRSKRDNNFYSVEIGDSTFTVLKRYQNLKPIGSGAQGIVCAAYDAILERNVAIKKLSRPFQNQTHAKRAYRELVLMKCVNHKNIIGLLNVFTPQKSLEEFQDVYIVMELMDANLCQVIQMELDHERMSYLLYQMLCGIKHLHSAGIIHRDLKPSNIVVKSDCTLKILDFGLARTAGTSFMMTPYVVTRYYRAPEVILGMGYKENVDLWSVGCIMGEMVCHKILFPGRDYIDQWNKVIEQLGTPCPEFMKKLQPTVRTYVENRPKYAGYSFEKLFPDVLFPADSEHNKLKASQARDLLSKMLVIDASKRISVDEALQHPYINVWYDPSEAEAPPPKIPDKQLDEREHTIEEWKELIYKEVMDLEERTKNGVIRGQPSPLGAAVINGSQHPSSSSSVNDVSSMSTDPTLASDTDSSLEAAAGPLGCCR

PCTK2 = PCTK2 (Homo sapiens, UniProt Q00537)
PDPK1 = biological target: T2, PDPK1 (Homo sapiens, UniProt O15530)
T2 sequence (O15530 1-556): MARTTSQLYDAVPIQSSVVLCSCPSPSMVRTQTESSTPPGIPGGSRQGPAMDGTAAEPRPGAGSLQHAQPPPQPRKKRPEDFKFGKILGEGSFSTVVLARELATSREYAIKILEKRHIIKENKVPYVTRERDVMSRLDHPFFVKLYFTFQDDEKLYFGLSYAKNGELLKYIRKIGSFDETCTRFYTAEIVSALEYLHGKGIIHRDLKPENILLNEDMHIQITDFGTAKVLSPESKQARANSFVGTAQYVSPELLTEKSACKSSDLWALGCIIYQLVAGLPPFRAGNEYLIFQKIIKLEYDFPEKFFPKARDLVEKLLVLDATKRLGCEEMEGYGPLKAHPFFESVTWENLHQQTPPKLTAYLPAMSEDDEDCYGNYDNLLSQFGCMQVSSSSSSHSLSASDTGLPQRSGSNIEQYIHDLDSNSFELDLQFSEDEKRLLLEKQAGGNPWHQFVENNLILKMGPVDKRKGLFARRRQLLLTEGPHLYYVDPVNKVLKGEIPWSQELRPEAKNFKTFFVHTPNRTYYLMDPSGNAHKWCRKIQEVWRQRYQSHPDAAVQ

PRKACB = PRKACB (Homo sapiens, UniProt P22694)
PRKCQ = PRKCQ (Homo sapiens, UniProt Q04759)
Chain of PRKCQ (Q04759 whole entry): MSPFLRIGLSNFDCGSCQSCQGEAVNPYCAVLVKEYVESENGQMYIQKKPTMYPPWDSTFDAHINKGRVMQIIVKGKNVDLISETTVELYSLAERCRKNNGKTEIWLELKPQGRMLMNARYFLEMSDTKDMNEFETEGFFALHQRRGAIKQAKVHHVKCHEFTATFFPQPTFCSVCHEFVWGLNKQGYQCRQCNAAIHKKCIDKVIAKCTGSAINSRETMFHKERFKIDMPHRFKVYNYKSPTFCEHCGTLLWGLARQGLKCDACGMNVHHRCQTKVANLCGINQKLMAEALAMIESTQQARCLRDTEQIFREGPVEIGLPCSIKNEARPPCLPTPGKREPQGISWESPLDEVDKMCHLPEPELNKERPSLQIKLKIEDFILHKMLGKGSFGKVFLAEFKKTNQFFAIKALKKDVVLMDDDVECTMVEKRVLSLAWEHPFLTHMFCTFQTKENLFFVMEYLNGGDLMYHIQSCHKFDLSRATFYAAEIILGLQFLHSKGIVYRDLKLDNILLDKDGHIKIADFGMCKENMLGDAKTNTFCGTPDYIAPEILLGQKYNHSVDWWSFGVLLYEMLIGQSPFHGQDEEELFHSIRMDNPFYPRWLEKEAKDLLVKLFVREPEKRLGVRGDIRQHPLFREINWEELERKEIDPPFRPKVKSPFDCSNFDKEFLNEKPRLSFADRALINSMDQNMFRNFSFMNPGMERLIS

PRKX = biological target: T3, PRKX (Homo sapiens, UniProt P51817)
T3 sequence (P51817 1-358): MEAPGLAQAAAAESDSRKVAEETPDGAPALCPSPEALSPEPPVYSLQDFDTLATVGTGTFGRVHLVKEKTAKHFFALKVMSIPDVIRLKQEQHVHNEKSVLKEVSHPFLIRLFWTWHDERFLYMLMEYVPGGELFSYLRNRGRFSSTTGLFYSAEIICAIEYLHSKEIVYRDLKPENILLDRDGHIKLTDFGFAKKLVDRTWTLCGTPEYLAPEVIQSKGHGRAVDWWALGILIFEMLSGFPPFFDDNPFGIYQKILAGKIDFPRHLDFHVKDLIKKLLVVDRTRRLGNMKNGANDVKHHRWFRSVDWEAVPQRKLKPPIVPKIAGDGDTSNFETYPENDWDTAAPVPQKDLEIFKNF

RPS6KA5 = RPS6KA5 (Homo sapiens, UniProt O75582)
SLK = SLK (Homo sapiens, UniProt Q9H2G2)
Chain of SLK (Q9H2G2 whole entry): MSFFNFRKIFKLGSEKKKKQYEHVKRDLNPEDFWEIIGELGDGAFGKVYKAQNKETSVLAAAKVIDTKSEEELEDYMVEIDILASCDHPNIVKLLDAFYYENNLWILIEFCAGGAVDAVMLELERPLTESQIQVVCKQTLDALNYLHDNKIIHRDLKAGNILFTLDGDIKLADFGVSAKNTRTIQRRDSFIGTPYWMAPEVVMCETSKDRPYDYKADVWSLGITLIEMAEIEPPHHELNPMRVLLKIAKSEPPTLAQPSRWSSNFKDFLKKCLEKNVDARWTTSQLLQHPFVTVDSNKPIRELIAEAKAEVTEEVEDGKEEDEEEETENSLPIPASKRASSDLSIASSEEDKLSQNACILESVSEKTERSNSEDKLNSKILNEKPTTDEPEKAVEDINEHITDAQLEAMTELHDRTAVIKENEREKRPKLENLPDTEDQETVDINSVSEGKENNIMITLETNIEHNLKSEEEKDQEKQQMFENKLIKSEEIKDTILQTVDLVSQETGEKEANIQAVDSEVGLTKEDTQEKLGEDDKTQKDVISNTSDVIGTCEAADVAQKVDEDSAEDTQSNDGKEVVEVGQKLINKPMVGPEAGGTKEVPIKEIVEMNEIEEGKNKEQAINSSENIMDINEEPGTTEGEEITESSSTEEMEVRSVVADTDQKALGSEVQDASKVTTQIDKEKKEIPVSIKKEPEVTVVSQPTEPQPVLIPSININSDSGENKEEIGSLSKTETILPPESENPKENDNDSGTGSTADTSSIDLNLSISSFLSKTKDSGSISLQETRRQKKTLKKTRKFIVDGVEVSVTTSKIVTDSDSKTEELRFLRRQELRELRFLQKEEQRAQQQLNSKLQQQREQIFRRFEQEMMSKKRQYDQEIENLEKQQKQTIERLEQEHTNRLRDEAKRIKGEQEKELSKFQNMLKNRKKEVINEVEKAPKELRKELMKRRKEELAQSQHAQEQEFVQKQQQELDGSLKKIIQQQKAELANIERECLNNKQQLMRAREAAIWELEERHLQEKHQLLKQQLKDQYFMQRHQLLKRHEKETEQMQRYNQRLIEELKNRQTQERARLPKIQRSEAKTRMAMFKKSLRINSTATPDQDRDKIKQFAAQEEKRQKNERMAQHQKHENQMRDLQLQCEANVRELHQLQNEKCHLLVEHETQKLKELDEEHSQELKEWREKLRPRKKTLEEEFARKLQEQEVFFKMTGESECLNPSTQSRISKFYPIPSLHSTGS

SRC = SRC (Homo sapiens, UniProt P12931)
STK38 = STK38 (Homo sapiens, UniProt Q15208)
Chain of STK38 (Q15208 whole entry): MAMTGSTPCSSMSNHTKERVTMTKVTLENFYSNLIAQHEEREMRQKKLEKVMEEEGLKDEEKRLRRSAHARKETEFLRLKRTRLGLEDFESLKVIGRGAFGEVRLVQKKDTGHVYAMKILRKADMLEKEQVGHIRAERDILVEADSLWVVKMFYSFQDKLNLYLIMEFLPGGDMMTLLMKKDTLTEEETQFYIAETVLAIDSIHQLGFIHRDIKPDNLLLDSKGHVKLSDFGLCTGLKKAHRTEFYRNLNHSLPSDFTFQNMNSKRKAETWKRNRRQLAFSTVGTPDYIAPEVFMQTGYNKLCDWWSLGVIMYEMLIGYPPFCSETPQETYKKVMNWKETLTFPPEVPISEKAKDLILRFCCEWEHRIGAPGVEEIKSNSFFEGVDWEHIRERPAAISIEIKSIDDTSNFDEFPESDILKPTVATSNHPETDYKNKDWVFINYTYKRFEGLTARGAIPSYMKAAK

TNK1 = biological target: T4, TNK1 (Homo sapiens, UniProt Q13470)
T4 sequence (Q13470 1-666): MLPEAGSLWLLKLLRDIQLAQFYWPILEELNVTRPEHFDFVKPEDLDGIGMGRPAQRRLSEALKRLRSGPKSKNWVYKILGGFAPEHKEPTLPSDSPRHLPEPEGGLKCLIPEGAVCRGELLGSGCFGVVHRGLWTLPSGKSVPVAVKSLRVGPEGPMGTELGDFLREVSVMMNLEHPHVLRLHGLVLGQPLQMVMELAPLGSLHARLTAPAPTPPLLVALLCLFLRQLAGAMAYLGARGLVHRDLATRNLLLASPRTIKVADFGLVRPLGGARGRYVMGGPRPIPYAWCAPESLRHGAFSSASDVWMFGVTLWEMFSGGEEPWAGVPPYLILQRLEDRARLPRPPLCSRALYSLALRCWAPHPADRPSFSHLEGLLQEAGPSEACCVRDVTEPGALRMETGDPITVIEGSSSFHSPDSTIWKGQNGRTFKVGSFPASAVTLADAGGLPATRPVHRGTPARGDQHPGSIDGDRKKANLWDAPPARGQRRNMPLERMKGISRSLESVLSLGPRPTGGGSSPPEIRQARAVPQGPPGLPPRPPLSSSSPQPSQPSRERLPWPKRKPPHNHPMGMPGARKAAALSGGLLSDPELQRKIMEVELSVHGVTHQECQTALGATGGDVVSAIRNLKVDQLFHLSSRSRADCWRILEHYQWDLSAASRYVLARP

WEE1 = WEE1 (Homo sapiens, UniProt P30291)
Chain of WEE1 (P30291 whole entry): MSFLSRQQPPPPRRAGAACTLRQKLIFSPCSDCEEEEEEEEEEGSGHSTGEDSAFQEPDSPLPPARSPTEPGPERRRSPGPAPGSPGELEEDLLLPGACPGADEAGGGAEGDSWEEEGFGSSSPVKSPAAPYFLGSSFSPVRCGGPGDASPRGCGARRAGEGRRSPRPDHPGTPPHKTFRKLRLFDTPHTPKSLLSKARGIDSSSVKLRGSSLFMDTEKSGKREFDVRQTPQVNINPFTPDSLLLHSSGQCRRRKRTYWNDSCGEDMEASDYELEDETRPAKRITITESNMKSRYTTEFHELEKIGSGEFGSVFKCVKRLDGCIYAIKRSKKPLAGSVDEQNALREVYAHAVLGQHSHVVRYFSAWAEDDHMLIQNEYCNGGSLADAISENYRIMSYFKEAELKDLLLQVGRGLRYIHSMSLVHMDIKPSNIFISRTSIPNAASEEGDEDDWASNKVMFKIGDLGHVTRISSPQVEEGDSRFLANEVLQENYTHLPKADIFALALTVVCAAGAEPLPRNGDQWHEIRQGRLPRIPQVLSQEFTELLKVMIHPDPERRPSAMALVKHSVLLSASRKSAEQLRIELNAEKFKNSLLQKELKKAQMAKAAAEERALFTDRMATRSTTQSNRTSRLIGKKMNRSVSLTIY

Chain of BTK (Q06187 whole entry): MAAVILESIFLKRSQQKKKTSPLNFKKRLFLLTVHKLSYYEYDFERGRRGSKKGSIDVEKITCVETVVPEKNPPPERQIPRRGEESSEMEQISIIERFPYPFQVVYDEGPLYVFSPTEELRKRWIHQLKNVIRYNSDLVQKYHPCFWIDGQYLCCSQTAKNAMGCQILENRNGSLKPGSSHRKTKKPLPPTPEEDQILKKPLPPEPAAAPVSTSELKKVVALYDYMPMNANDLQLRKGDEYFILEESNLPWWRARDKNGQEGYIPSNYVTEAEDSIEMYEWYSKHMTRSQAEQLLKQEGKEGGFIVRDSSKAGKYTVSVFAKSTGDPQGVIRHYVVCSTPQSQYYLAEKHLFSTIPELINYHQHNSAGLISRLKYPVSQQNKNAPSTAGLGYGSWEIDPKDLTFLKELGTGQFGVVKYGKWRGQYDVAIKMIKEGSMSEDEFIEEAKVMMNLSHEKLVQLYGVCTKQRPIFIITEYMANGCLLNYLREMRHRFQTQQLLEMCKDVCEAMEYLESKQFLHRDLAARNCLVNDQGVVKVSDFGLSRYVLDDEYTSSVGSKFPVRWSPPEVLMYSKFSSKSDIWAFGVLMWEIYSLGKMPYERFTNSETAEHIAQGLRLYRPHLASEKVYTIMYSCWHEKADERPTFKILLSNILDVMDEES
Chain of CSK (P41240 whole entry): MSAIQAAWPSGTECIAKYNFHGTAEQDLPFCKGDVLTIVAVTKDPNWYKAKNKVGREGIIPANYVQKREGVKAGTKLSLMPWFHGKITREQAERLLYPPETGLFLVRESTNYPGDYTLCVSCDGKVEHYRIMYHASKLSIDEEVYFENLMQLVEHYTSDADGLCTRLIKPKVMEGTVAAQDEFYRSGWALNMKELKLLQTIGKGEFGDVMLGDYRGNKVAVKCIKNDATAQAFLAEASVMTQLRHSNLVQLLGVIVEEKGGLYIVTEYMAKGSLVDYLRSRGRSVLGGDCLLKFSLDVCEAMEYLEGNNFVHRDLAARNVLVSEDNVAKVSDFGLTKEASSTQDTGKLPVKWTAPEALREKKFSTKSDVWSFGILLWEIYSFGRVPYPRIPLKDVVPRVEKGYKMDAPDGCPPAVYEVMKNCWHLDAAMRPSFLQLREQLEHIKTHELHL
Chain of CDK7 (P50613 whole entry): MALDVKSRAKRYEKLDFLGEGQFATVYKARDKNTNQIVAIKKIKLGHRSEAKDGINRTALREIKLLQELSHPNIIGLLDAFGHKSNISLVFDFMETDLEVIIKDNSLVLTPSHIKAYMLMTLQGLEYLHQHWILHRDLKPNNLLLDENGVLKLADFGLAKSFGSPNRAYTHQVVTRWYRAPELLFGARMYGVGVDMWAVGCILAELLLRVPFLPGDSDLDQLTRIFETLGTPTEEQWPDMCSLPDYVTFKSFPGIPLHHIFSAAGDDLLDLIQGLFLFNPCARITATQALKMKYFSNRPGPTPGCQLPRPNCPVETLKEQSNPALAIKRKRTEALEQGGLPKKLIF

Row | Compound | IC50 (BTK) | IC50 (CDK7) | IC50 (CSK) | IC50 (FYN) | IC50 (LIMK1) | IC50 (MAP2K4) | IC50 (MAPK8) | IC50 (PCTK2) | IC50 (PDPK1) | IC50 (PRKACB) | IC50 (PRKCQ) | IC50 (PRKX) | IC50 (RPS6KA5) | IC50 (SLK) | IC50 (SRC) | IC50 (STK38) | IC50 (TNK1) | IC50 (WEE1)
1 | CN1CCN(c2ccc(Nc3ncc(C#N)c(Nc4ccccc4C(N)=O)n3)cc2)CC1.Cl [TCMDC-134116] | 600 nM and 670 nM | 530 nM and 620 nM | 4100 nM | 300 nM and 240 nM | 220 nM | > 20000 nM | 1500 nM and 5100 nM | 76 nM and 110 nM | 890 nM and 740 nM | 6300 nM | 1200 nM and 910 nM | 1300 nM | 500 nM and 750 nM | 48 nM and 57 nM | 480 nM and 410 nM | 350 nM and 290 nM | ≤ 32 nM | 48 nM and 47 nM
2 | Cl.NCC1(c2nc(-c3ccc(Cl)c(O)c3)c(-c3ccncc3)[nH]2)CCCCC1 [TCMDC-141154] | > 20000 nM | > 20000 nM | 4400 nM | 190 nM and 170 nM | > 20000 nM | > 20000 nM | > 20000 nM | > 20000 nM | > 20000 nM | 890 nM | 1100 nM and 1400 nM | > 20000 nM | > 20000 nM | ≤ 32 nM | 290 nM | > 20000 nM | > 20000 nM | > 20000 nM
3 | CN(C)CC(O)COc1ccc(Nc2ncc([N+](=O)[O-])c(Nc3ccccc3O)n2)cc1.O=C(O)C(F)(F)F (stereo not drawn) [TCMDC-141399] | > 20000 nM | 1800 nM and 5800 nM | > 20000 nM | > 20000 nM | > 20000 nM | > 20000 nM | > 20000 nM | 1500 nM and 1400 nM | > 20000 nM | > 20000 nM | > 20000 nM | > 20000 nM | > 20000 nM | 890 nM and 1000 nM | > 20000 nM | > 20000 nM | 4200 nM and 1700 nM | 580 nM
